{
  "source": "patent US20170072012A1",
  "about": "“USE OF GSMTX4 TO REDUCE ISCHEMIA REPERFUSION INJURY” (priority 2014, published 2017)",
  "key": {"[1]": {"test_system": "ischemic reperfusion injury in mouse heart", "type": "in vivo, C57B1/6J mice", "details": "0.4 mg/kg tail vein 5 min before reperfusion; 4 h reperfusion; vehicle 16.5±1.2%; not statistically significant", "procedure": "Acute GsMTx4-D treatment: All animal protocols in this study were approved by the Institutional Animal Care and Use Committee of the University at Buffalo-State University of New York. C57B1/6J mice were anesthetized with 80 mg/kg of sodium pentobarbital (Sigma, St. Louis, Mo.) via intraperitoneal injection (IP), intubated and ventilated with a respirator (Harvard apparatus, Holliston, Mass., USA) 17. Upon absence of a pedal reflex, surgery was performed under a stereomicroscope. Core body temperature was maintained at 37° C. with a heating pad. After a left lateral thoracotomy, the left anterior descending coronary artery (LAD) was occluded just underneath the left atrium for 20 min with an 8-0 nylon suture. […] A small piece of gauze was used to prevent arterial injury. After 20 min the ligature was removed and the tissue was reperfused for up to 4 h before euthanizing. Three different doses of GsMTx4-D (0.1, 1, 10 mg/kg), verapamil (0.4 mg/kg) or vehicle (saline 50 μL) were administered via tail vein injection 5 min before reperfusion (during induced ischemia). ECGs confirmed the hallmark ischemic ST segment elevation during coronary occlusion (AD Instruments, Colorado Springs, CO, USA). Each group included 5 independent experiments. At the conclusion of the study, mice were euthanized by IP injection of 270 mg/kg pentobarbital. GsMTx4-D pretreatment: To evaluate the effect of GsMTx4-D pretreatment, GsMTx4-D (50 mg/kg) or vehicle (saline 50 μL) were administered via IP injection once daily for 2 days prior to surgery. Ischemia was then elicited with the same 20 min coronary occlusion followed by 24 h reperfusion. Following reperfusion, the chest was closed in layers. A drop of lidocaine was put on the suture site and the mouse was slowly weaned off the ventilator when they resumed spontaneous breathing. The mouse was returned to its cage and kept warm and medicated for pain (buprenorphine). Each group included 5 independent experiments.\nTo measure infarct size, hearts were harvested and excised for dual staining at the conclusion of reperfusion. The non-necrotic tissue in the ischemic region was stained red with 2,3,5- triphenyltetrazolium (TTC) and non-ischemic regions were stained blue with Evans blue. The hearts were fixed and sectioned into 1 mm slices, photographed with a Lexica MZ95 microscope and analyzed with NIH ImageJ software (http://imagej.nih.gov/ij/) 19. The infarct size was calculated as the ratio of the percentage of myocardial necrosis to the ischemic Area At Risk (AAR).\nTo test whether GsMTx4-D protected the heart against reperfusion injury, we first tested three different doses of the peptide. The positive control was verapamil, a voltage-gated calcium channel inhibitor with established cardioprotective effects on IRI. C57B1/6 mice were subjected to 20 min occlusion of the LAD followed by 4 hours of reperfusion. Three different concentrations of GsMTx4-D (0.1, 1 and 10 mg/kg), verapamil (0.4 mg/kg), or vehicle (saline) were administered through tail vein injection 5 min before reperfusion. […] At the conclusion of reperfusion, the hearts were stained with TTC and Evans Blue (FIG. 2A). […] The verapamil group also had lower infarction size (14.0±0.4%), but the difference wasn't statistically significant. […] To evaluate whether pretreatment with GsMTx4-D could also protect the heart from I/R injury, GsMTx4-D (50 mg/kg) or vehicle (saline 50 μL) were administered daily via IP injection, for 2 days prior to I/R surgery. As before, ischemia was induced from 20 min LAD occlusion, but reperfusion was allowed to continue for 24 hrs. The chest was closed in layers, and animals were weaned off the ventilator when they resumed spontaneous breathing. […] The ratios of AAR to total myocardial area between the two groups were equal as determined by TTC and Evans Blue staining (FIG. 3A and B). […]"}, "[2]": {"test_system": "I/R induced arrhythmias in mouse heart", "experiment": "Heart rhythm analysis (ECG) during reperfusion, I/R induced arrhythmia", "type": "in vivo, C57B1/6J mice", "details": "0.4 mg/kg IV 5 min before reperfusion; vehicle 14.9±4.5; not significantly different", "procedure": "During reperfusion we continuously recorded ECGs, from which mean heart rate, PR, QRS, and QT intervals were derived for each animal. We evaluated the incidence of arrhythmias by counting the incidences of arrhythmias including ventricular and supraventricular premature beats by summing the number of episodes based on limb lead recordings for 15 min after reperfusion. Ventricular premature beats are considered more severe. Each group contained 5 to 7 independent experiments (vehicle n=7, verapamil n=6, GsMTx4-D 0.1mg/kg n=5, 1 mg/kg n=6 and 10 mg/kg n=5).\nHeart rate and rhythm were monitored by ECG to confirm the hallmark ischemic ST-segment elevation during coronary occlusion, and the gradually increasing inversion of the T-wave during reperfusion (FIG. 4A). Since generation of arrhythmias is a good indicator of the level of I/R damage, we counted ventricular and supraventricular premature beats occurring within 15 min of reperfusion (FIG. 4B). No ventricular tachycardia was observed during 20 min ischemia and 15 min reperfusion in the mouse heart. […] Considering that ventricular premature beats are indicative of more severe damage, the incidence of this specific arrhythmia was analyzed separately (FIG. 4 D). […] There was no difference in mean heart rate before ischemia (FIG. 4E). […] There was no difference in PR, QRS or QT intervals after treatment in all groups (data not shown)."}},
  "data": [
    {"smiles": "COc1ccc(CCN(C)CCCC(C#N)(c2ccc(OC)c(OC)c2)C(C)C)cc1OC", "note": "(centres unmarked) [verapamil, reference compound]", "values": [
      {"measurement": "infarction size (infarct area / AAR)", "setting": "[1]", "result": "14.0±0.4", "unit": "%"},
      {"measurement": "total incidence of arrhythmias (ventricular and supraventricular premature beats)", "setting": "[2]", "result": "5.7±1.2 incidence/15 min reperfusion"}
    ]}
  ]
}
